# From patent publication US20120214822A1 (ASTRAZENECA AB, priority 2007, published 2012)
# Where a name gives a salt, the structure may show the parent alone.
# Biological target: human active recombinant p38α-6His tagged (Homo sapiens, UniProt Q16539)
# Assay: P38 Alpha Enzyme Assay (AlphaScreen, biotinylated-ATF2 substrate);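 further: 0.5 nM final p38α, reaction started with ATP and run 45 min at 37 °C, phospho-ATF2 read by antibody-based AlphaScreen, background wells quenched with EDTA before ATP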
# Type: biochemical
# Conditions: p38 alpha enzyme inhibition; means of replicate determinations; 4 h pre-incubation at 37° C.; SD of assay 0.2-0.3 log units
# Sequence of human active recombinant p38α-6His tagged (Q16539 whole entry): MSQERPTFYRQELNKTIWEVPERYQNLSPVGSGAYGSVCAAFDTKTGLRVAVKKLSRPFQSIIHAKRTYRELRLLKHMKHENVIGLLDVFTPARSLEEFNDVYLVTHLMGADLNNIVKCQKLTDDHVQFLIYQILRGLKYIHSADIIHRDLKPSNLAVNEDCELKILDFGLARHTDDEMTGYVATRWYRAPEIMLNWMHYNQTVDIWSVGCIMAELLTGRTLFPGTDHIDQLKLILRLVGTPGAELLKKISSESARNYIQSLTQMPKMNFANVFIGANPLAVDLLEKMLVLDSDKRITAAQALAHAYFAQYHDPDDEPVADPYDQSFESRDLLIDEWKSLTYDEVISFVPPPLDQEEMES
row,SMILES,pIC50
1,"Cc1ccc(C(=O)NC2CC2)cc1-n1ccnc(NCc2ccc(CN)cc2)c1=O [Example 125, 3-[3-[[[4-(Aminomethyl)phenyl]methyl]amino]-2-oxo-1(2H)-pyrazinyl]-N-cyclopropyl-4-methyl-benzamide]",6.2
2,"CONC(=O)c1ccc(C)c(-n2ccnc(N3CCNC(c4ccccc4)C3)c2=O)c1 (stereo not shown) [Example 126, N-Methoxy-4-methyl-3-[2-oxo-3-(3-phenyl-1-piperazinyl)-1(2H)-pyrazinyl]-benzamide]",8.1
3,"CONC(=O)c1ccc(C)c(-n2ccnc(C3CCCC3)c2=O)c1 [Example 127, 3-(3-cyclopentyl-2-oxo-1(2H)-pyrazinyl)-N-methoxy-4-methyl-benzamide]",7.3
4,"CSc1ccccc1CNc1nccn(-c2cc(C(=O)NC3CC3)ccc2C)c1=O [Example 128, N-Cyclopropyl-4-methyl-3-[3-[[[2-(methylthio)phenyl]methyl]amino]-2-oxo-1(2H)-pyrazinyl]-benzamide]",8.2
5,"Cc1ccc(C(=O)NC2CC2)cc1-n1ccnc(NCc2ccccc2Cl)c1=O [Example 129, 3-[3-[[(2-Chlorophenyl)methyl]amino]-2-oxo-1(2H)-pyrazinyl]-N-cyclopropyl-4-methyl-benzamide]",7.7
6,"Cc1ccc(C(=O)NC2CC2)cc1-n1ccnc(NCc2cccc(Cl)c2)c1=O [Example 130, 3-[3-[[(3-Chlorophenyl)methyl]amino]-2-oxo-1(2H)-pyrazinyl]-N-cyclopropyl-4-methyl-benzamide]",8.2
7,"CONC(=O)c1ccc(C)c(-n2ccnc(N3CCCC3)c2=O)c1 [Example 132, N-Methoxy-4-methyl-3-[2-oxo-3-(1-pyrrolidinyl)-1(2H)-pyrazinyl]-benzamide]",7.5
8,"Cc1ccc(C(=O)NC2CC2)cc1-n1ccnc(NCCc2ccc(OCCN3CCCC3)cc2)c1=O [Example 133, N-Cyclopropyl-4-methyl-3-[2-oxo-3-[[2-[4-[2-(1-pyrrolidinyl)ethoxy]phenyl]ethyl]amino]-1(2H)-pyrazinyl]-benzamide]",6.8
9,"Cc1ccc(C(=O)NC2CC2)cc1-n1ccnc(NC(C)(C)c2ccccc2O)c1=O [Example 134, N-Cyclopropyl-3-[3-[[1-(2-hydroxyphenyl)-1-methylethyl]amino]-2-oxo-1(2H)-pyrazinyl]-4-methyl-benzamide]",8.9
10,"Cc1ccc(C(=O)NC2CC2)cc1-n1ccnc(N[C@@H](c2cccc3ccccc23)[C@@H](C)CO)c1=O [Example 137, N-Cyclopropyl-3-[3-[[(1R,2R)-3-hydroxy-2-methyl-1-(1-naphthalenyl)propyl]amino]-2-oxo-1(2H)-pyrazinyl]-4-methyl-benzamide]",8.1
11,"CC(=O)N1CCN(C[C@H](C)[C@@H](Nc2nccn(-c3cc(C(=O)NC4CC4)ccc3C)c2=O)c2ccccc2)CC1 [Example 140, 3-[3-[[(1R,2S)-3-(4-Acetyl-1-piperazinyl)-2-methyl-1-phenylpropyl]amino]-2-oxo-1(2H)-pyrazinyl]-N-cyclopropyl-4-methyl-benzamide]",8.6
12,"Cc1ccc(C(=O)NC2CC2)cc1-n1ccnc(N[C@@H](c2ccccc2)[C@@H](C)CN2CCCC2)c1=O [Example 142, N-Cyclopropyl-4-methyl-3-[3-[[(1R,2S)-2-methyl-1-phenyl-3-(1-pyrrolidinyl)propyl]amino]-2-oxo-1(2H)-pyrazinyl]-benzamide]",8.8
13,"Cc1ccc(C(=O)NC2CC2)cc1-n1ccnc(N[C@@H](c2cccc3ccccc23)[C@@H](C)CN2CCCC2)c1=O [Example 144, N-Cyclopropyl-4-methyl-3-[3-[[(1R,2S)-2-methyl-1-(1-naphthalenyl)-3-(1-pyrrolidinyl)propyl]amino]-2-oxo-1(2H)-pyrazinyl]-benzamide]",7.9
14,"Cc1ccc(C(=O)NC2CC2)cc1-n1ccnc(N[C@@H](c2cccc3ccccc23)[C@@H](C)CN2CCOCC2)c1=O [Example 145, N-Cyclopropyl-4-methyl-3-[3-[[(1R,2S)-2-methyl-3-(4-morpholinyl)-1-(1-naphthalenyl)propyl]amino]-2-oxo-1(2H)-pyrazinyl]-benzamide]",8.2
15,"CCN(CC)C[C@H](C)[C@@H](Nc1nccn(-c2cc(C(=O)NC3CC3)ccc2C)c1=O)c1ccccc1 [Example 146, N-cyclopropyl-3-[3-[[(1R,2S)-3-(diethylamino)-2-methyl-1-phenylpropyl]amino]-2-oxo-1(2H)-pyrazinyl]-4-methyl-benzamide]",8.9
16,"COC[C@H]1CCCN1C[C@H](C)[C@@H](Nc1nccn(-c2cc(C(=O)NC3CC3)ccc2C)c1=O)c1ccccc1 [Example 147, N-Cyclopropyl-3-[3-[[(1R,2S)-3-[(2R)-2-(methoxymethyl)-1-pyrrolidinyl]-2-methyl-1-phenylpropyl]amino]-2-oxo-1(2H)-pyrazinyl]-4-methyl-benzamide]",9

row,SMILES,pIC50
1,"COC[C@H]1CCCN1C[C@@H](C)[C@@H](Nc1nccn(-c2cc(C(=O)NC3CC3)ccc2C)c1=O)c1ccccc1 [Example 148, N-Cyclopropyl-3-[3-[[(1R,2R)-3-[(2R)-2-(methoxymethyl)-1-pyrrolidinyl]-2-methyl-1-phenylpropyl]amino]-2-oxo-1(2H)-pyrazinyl]-4-methyl-benzamide]",8.1
2,"COC[C@@H]1CCCN1C[C@H](C)[C@@H](Nc1nccn(-c2cc(C(=O)NC3CC3)ccc2C)c1=O)c1ccccc1 [Example 149, N-Cyclopropyl-3-[3-[[(1R,2S)-3-[(2S)-2-(methoxymethyl)-1-pyrrolidinyl]-2-methyl-1-phenylpropyl]amino]-2-oxo-1(2H)-pyrazinyl]-4-methyl-benzamide]",8.9
3,"COC[C@@H]1CCCN1C[C@@H](C)[C@@H](Nc1nccn(-c2cc(C(=O)NC3CC3)ccc2C)c1=O)c1ccccc1 [Example 150, N-Cyclopropyl-3-[3-[[(1R,2R)-3-[(2S)-2-(methoxymethyl)-1-pyrrolidinyl]-2-methyl-1-phenylpropyl]amino]-2-oxo-1(2H)-pyrazinyl]-4-methyl-benzamide]",7.9
4,"Cc1ccc(C(=O)NC2CC2)cc1-n1ccnc(N[C@@H](c2ccccc2)[C@@H](C)CN2CCC(CO)CC2)c1=O [Example 151, N-Cyclopropyl-3-[3-[[(1R,2S)-3-[4-(hydroxymethyl)-1-piperidinyl]-2-methyl-1-phenylpropyl]amino]-2-oxo-1(2H)-pyrazinyl]-4-methyl-benzamide]",9.1
5,"Cc1ccc(C(=O)NC2CC2)cc1-n1ccnc(N[C@@H](c2ccccc2)[C@@H](C)CN2CCC(O)CC2)c1=O [Example 152, N-Cyclopropyl-3-[3-[[(1R,2S)-3-(4-hydroxy-1-piperidinyl)-2-methyl-1-phenylpropyl]amino]-2-oxo-1(2H)-pyrazinyl]-4-methyl-benzamide]",8.9
6,"Cc1ccc(C(=O)NC2CC2)cc1-n1ccnc(N[C@@H](c2ccccc2)[C@@H](C)CNC(C)(C)C)c1=O [Example 153, N-Cyclopropyl-3-[3-[[(1R,2S)-3-[(1,1-dimethylethyl)amino]-2-methyl-1-phenylpropyl]amino]-2-oxo-1(2H)-pyrazinyl]-4-methyl-benzamide]",9.2
7,"Cc1ccc(C(=O)NC2CC2)cc1-n1ccnc(N[C@@H](c2ccccc2)[C@@H](C)CN(C)C(C)(C)C)c1=O [Example 154, N-Cyclopropyl-3-[3-[[(1R,2S)-3-[(1,1-dimethylethyl)methylamino]-2-methyl-1-phenylpropyl]amino]-2-oxo-1(2H)-pyrazinyl]-4-methyl-benzamide]",9
8,"Cc1ccc(C(=O)NC2CC2)cc1-n1ccnc(N[C@@H](c2ccccc2)[C@@H](C)CNCCN(C)C)c1=O [Example 155, N-Cyclopropyl-3-[3-[[(1R,2S)-3-[[2-(dimethylamino)ethyl]amino]-2-methyl-1-phenylpropyl]amino]-2-oxo-1(2H)-pyrazinyl]-4-methyl-benzamide]",9.1
9,"Cc1ccc(C(=O)NC2CC2)cc1-n1ccnc(N[C@@H](c2ccccc2)[C@@H](C)CN(C)CCN(C)C)c1=O [Example 156, N-Cyclopropyl-3-[3-[[(1R,2S)-3-[[2-(dimethylamino)ethyl]methylamino]-2-methyl-1-phenylpropyl]amino]-2-oxo-1(2H)-pyrazinyl]-4-methyl-benzamide]",8.9
10,"Cc1ccc(C(=O)NC2CC2)cc1-n1ccnc(N[C@@H](c2ccccc2)[C@@H](C)CNCC(C)(C)C)c1=O [Example 157, N-Cyclopropyl-3-[3-[[(1R,2S)-3-[(2,2-dimethylpropyl)amino]-2-methyl-1-phenylpropyl]amino]-2-oxo-1(2H)-pyrazinyl]-4-methyl-benzamide]",9
11,"CONC(=O)c1ccc(C)c(-n2ccnc(N[C@@H](c3cccc4ccccc34)[C@@H](C)CN3CCCC3)c2=O)c1 [Example 158, N-Methoxy-4-methyl-3-[3-[[(1R,2S)-2-methyl-1-(1-naphthalenyl)-3-(1-pyrrolidinyl)propyl]amino]-2-oxo-1(2H)-pyrazinyl]-benzamide]",9
12,"CONC(=O)c1ccc(C)c(-n2ccnc(N[C@@H](c3ccccc3)[C@@H](C)CN3CCCC3)c2=O)c1 [Example 159, N-Methoxy-4-methyl-3-[3-[[(1R,2S)-2-methyl-1-phenyl-3-(1-pyrrolidinyl)propyl]amino]-2-oxo-1(2H)-pyrazinyl]-benzamide]",9.6
13,"CONC(=O)c1ccc(C)c(-n2ccnc(N[C@@H](c3ccccc3)[C@@H](C)CN3CCOCC3)c2=O)c1 [Example 160, N-Methoxy-4-methyl-3-[3-[[(1R,2S)-2-methyl-3-(4-morpholinyl)-1-phenylpropyl]amino]-2-oxo-1(2H)-pyrazinyl]-benzamide]",9.8
14,"CONC(=O)c1ccc(C)c(-n2ccnc(N[C@@H](c3cccc4ccccc34)[C@@H](C)CN3CCOCC3)c2=O)c1 [Example 161, N-Methoxy-4-methyl-3-[3-[[(1R,2S)-2-methyl-3-(4-morpholinyl)-1-(1-naphthalenyl)propyl]amino]-2-oxo-1(2H)-pyrazinyl]-benzamide]",9.2
15,"CONC(=O)c1ccc(C)c(-n2ccnc(N[C@@H](c3ccccc3)[C@@H](C)CO)c2=O)c1 [Example 162, 3-[3-[[(1R,2R)-3-Hydroxy-2-methyl-1-phenylpropyl]amino]-2-oxo-1(2H)-pyrazinyl]-N-methoxy-4-methyl-benzamide, trifluoroacetate]",9.4
